Where “and” joins values, the source holds several entries; their conditions need not be identical. Identical values can stand only once. Counter-ions that a name gives are not always drawn. Like-named read-outs stand apart in the source and are kept apart here. Where a SMILES comes first, the peptide text is derived from it. Where no end group is shown, it is not given here. [ ]: non-standard residue; d: D form. The star is where a group is joined. ξ: configuration not given here. X2 = COc1ccc2c3c1OC1C(O*)=CCC4C(C2)N(C)CCC314; ξL = CC(C)CC(N)C(=O)O
What was measured:
[1] = rat, oral capsule; 2 hours was the first measurement
in vivo = conditions: Sprague-Dawley, rat, po, 3.6 mg, Serum Concentrations of Individual Rats, oral capsule, dose equal to 3.6 mg naltrexone
[2] = Serum naltrexone levels of rats orally dosed with BB301 polyserine-naltrexone conjugate vs. naltrexone (ELISA); conditions: rat; for Serum Concentrations of Individual Rats: equal dose (3.6 mg naltrexone)
[3] = Stability of narcotic conjugates in water (narcotic release, abuse resistance tests); format: physicochemical; conditions: for % Release of Narcotic in Water: neutral pH; for H2O (1 h, 90 C.) / H2O (24 h, RT): numbers based upon narcotic release
Text: It is also possible to further stabilize any unstable conjugates by tethering to a larger peptide. […] The conjugates are also stable at a wide range of pH's.

[4] = intranasal; for Comments (curve) / Peak Time / % AUC / % Cmax: serum, buffer PBS; for Peak Time: multiple of hydrocodone's peak time; for % AUC / % Cmax: vs. hydrocodone
male Sprague-Dawley rats = assay: Analgesia by paw lick latency (PLL), hot plate nociceptive model, subcutaneous injection; format: in vivo; design: Paw Lick Latency: unit not given beside the values; conditions: for PLL: rat hot plate, cutoff time of 45 seconds; for Percent: PLL above basal level compared to HC; for Delta: basal PLL of untreated rats subtracted
[5] = Pharmacokinetics of narcotic conjugates by oral administration (serum hydrocodone/oxycodone by ELISA); conditions: for Shape of the Curve: rat serum concentration curve vs. parent drug; for Peak Time / % AUC / % Cmax: rat serum; for Peak Time: multiple of parent drug's peak time; for % AUC / % Cmax: vs. equivalent dose of parent drug
[6] = Pharmacokinetics of peptide-amphetamine conjugates by oral administration (serum amphetamine by ELISA); conditions: rat
[7] = Sprague-Dawley, in vivo, po, 1.8 mg, Mean Serum Concentrations +/− SD, oral capsule, ½ dose (1.8 mg) at 0 hours and at […]
[8] = Sprague-Dawley, in vivo, po, 3.6 mg
[9] = Sprague-Dawley, in vivo, po, 3.6 mg, Mean Serum Concentrations +/− SD, oral capsule, equal dose at time zero
[10] = Table 12, 15 min., equivalent dose
[11] = Table 12, 30 min, equivalent dose
[12] = Table 12, Basal (0 h), before treatment
[13] = oral solution in water, equivalent amount of amphetamine
[14] = male, Sprague-Dawley, in vivo, po

## O=C1CC[C@@]2(O)[C@H]3Cc4ccc(O)c5c4[C@@]2(CCN3CC2CC2)[C@H]1O5 [Naltrexone]
[1]
  time at which serum levels spiked: 2 h
In vivo
  concentration at 12 h: 1 ng/mL
[2]; [7]
  concentration at 0.5 h: 72 ng/mL
  concentration at 3 h: 13 ng/mL
  concentration at 5 h: 4 ng/mL
  concentration at 8 h: 68 ng/mL
[2]; Sprague-Dawley, in vivo, po, 1.8 mg, Mean Serum Concentrations +/− SD, oral capsule, ½ dose (1.8 mg) at 0 hours and at […], 11.5 hours
  concentration at 11.5 h: 11 ng/mL
[2]; Sprague-Dawley, in vivo, po, 1.8 mg, Mean Serum Concentrations +/− SD, oral capsule, ½ dose (1.8 mg) at 0 hours and at […], 24 hours
  concentration at 24 h: 6 ng/mL
[2]; [8]
  AUC(0-t): 477 ng·h/mL
  Cmax: 124 ng/mL
  Tmax: 45 min
[2]; [9]
  concentration at 0.5 h: 115 ng/mL
  concentration at 3 h: 55 ng/mL
  concentration at 5 h: 56 ng/mL
  concentration at 8 h: 7 ng/mL
[2]; Sprague-Dawley, in vivo, po, 3.6 mg, Mean Serum Concentrations +/− SD, oral capsule, equal dose at time zero, 12 hours
  concentration at 12 h: 2 ng/mL
[2]; Sprague-Dawley, in vivo, po, 3.6 mg, Mean Serum Concentrations +/− SD, oral capsule, equal dose at time zero, 15 hours
  concentration at 15 h: 2 ng/mL
[2]; Sprague-Dawley, in vivo, po, 3.6 mg, Mean Serum Concentrations +/− SD, oral capsule, equal dose at time zero, 24 hours
  concentration at 24 h: 2 ng/mL
[2]; oral capsule, equal dose
  time at which naltrexone serum levels spiked: 0.5 h
[2]; oral capsule, 12 hours
  Serum Concentrations of Individual Rats: 2 ng/mL
[2]; oral capsule, 15 hours
  Serum Concentrations of Individual Rats: 1 ng/mL and 2 ng/mL
[2]; oral capsule, 24 hours
  Serum Concentrations of Individual Rats: 1 ng/ml (2×) and 3 ng/ml and 2 ng/ml

## COc1ccc2c3c1OC1C(OC(=O)CN)=CCC4C(C2)N(C)CCC314 (centres unmarked) [Gly-HC, 6-O-Gly-Hydrocodone]
[3]; 0 Hours
  % Release of Narcotic in Water: 6%
[3]; 1 Hour
  % Release of Narcotic in Water: 8%
[3]; 6 Hours
  % Release of Narcotic in Water: 11%
[3]; 24 Hours
  % Release of Narcotic in Water: 32%
[3]
  H2O (1 h, 90 C.): 63
  H2O (24 h, RT): 26

## COc1ccc2c3c1OC1C(OC(=O)C(N)CCC(=O)O)=CCC4C(C2)N(C)CCC314 (centres unmarked) [Glu-HC, 6-O-Glu-Hydrocodone]
[3]; 0 Hours
  % Release of Narcotic in Water: 0%
[3]; 1 Hour
  % Release of Narcotic in Water: 4%
[3]; 6 Hours
  % Release of Narcotic in Water: 19%
[3]; 24 Hours
  % Release of Narcotic in Water: 42%
[3]
  H2O (1 h, 90 C.): 100
  H2O (24 h, RT): 79
[4]
  Comments (curve): Flat curve
  Peak Time: 6X
  % AUC: 60%
  % Cmax: 55%

## COc1ccc2c3c1OC1C(OC(=O)C(CC(C)C)NC(=O)CNC(=O)CNC(=O)CNC(=O)CN)=CCC4C(C2)N(C)CCC314 (stereo not drawn) [GGGGL-HC, Gly-Gly-Gly-Gly-Leu-Hydrocodone] (H-GGGG[ξL]-X2)
Male Sprague-Dawley rats; Table 12, 60, 2× the equivalent dose
  Paw Lick Latency: 5
Male Sprague-Dawley rats; Table 12, 60, equivalent dose
  Paw Lick Latency: 3.6
Male Sprague-Dawley rats; Table 12, 15 min., 2× the equivalent dose
  Paw Lick Latency: 3
Male Sprague-Dawley rats; [10]
  Paw Lick Latency: 6.8
Male Sprague-Dawley rats; Table 12, 30 min, 2× the equivalent dose
  Paw Lick Latency: 5.6
Male Sprague-Dawley rats; [11]
  Paw Lick Latency: 5.6
Male Sprague-Dawley rats; [12]
  Paw Lick Latency: 7.5
Male Sprague-Dawley rats; Table 12, Basal (0 h), group given 2× the equivalent dose
  Paw Lick Latency: 2.2

## COc1ccc2c3c1OC1C(OC(=O)C(N)Cc4ccccc4)=CCC4C(C2)N(C)CCC314 (centres unmarked) [Phe-HC]
[3]
  H2O (1 h, 90 C.): 54

## COc1ccc2c3c1O[C@H]1C(OC(=O)[C@@H]4CCCN4)=CC[C@H]4[C@@H](C2)N(C)CC[C@]314 [Pro-HC, 6-O-Pro-Hydrocodone]
[3]; 0 Hours
  % Release of Narcotic in Water: 4%
[3]; 1 Hour
  % Release of Narcotic in Water: 11%
[3]; 6 Hours
  % Release of Narcotic in Water: 25%
[3]; 24 Hours
  % Release of Narcotic in Water: 71%
[3]
  H2O (1 h, 90 C.): 97
  H2O (24 h, RT): 71

## COc1ccc2c3c1OC1C(OC(=O)C(N)CO)=CCC4C(C2)N(C)CCC314 (centres unmarked) [Ser-HC]
[3]
  H2O (1 h, 90 C.): 98
  H2O (24 h, RT): 45

## COc1ccc2c3c1OC1C(OC(=O)OC[C@H]4OC(O)C(O)[C@H]4O)=CCC4[C@@H](C2)N(C)CC[C@]314.Cl (some centres unmarked) [Ribose-HC]
[3]
  H2O (24 h, RT): 4
[4]
  Comments (curve): No change
  Peak Time: 1X
  % AUC: 20%
  % Cmax: 34%
[4]; compound still contained small amounts of free hydrocodone
  inhibition of IN absorption: approximately 80%
[5]
  Shape of the Curve: No change
  Peak Time: 1X
  % AUC: 106%
  % Cmax: 132%

## CCC(C)C(N)C(=O)OC1=CCC2C3Cc4ccc(OC)c5c4C2(CCN3C)C1O5 (centres unmarked) [Ile-HC]
[3]
  H2O (1 h, 90 C.): 46
  H2O (24 h, RT): 16

## COc1ccc2c3c1O[C@H]1C(OC(=O)[C@@H](N)CC(C)C)=CC[C@H]4[C@@H](C2)N(C)CC[C@]314 [Leu-HC, Leu-Hydrocodone]
[3]
  H2O (1 h, 90 C.): 49
  H2O (24 h, RT): 10

## Ala-Pro-Hydrocodone [Ala-Pro-HC]
[3]
  H2O (1 h, 90 C.): 100
  H2O (24 h, RT): 100

## Glu5-HC: pentapeptide conjugate of hydrocodone (SEQ ID NO: 2) (EEEEE; also: hydrocodone conjugate)
[3]
  H2O (1 h, 90 C.): 53

## CC(Cc1ccccc1)NC(=O)C(N)CO (centres unmarked) [Ser-Amp]
[6]; [13]
  AUC 0-12 h: 290 ng·h/mL
  Cmax: 146 +/− 85
[6]; oral, AUC relative to amphetamine
  Percent Amphetamine (AUC 0-12 h): 55%
[6]; oral, Cmax relative to amphetamine
  Percent Amphetamine (Cmax): 76%

## CC(Cc1ccccc1)NC(=O)[C@@H](N)Cc1ccccc1 (some centres unmarked) [Phe-Amp]
[6]; oral
  Cmax and AUC compared with those of the parent drug: nearly equal
[6]; [13]
  AUC 0-12 h: 505 ng·h/mL
  Cmax: 175 +/− 77

## COc1ccc2c3c1O[C@H]1C(=O)CC[C@H]4[C@@H](C2)N(C)CC[C@]314 [Hydrocodone]
Male Sprague-Dawley rats; 30 minutes, subcutaneous
  PLL: 40
Male Sprague-Dawley rats; 30 minutes
  Percent: 100%
  Delta: 34
Male Sprague-Dawley rats; 45 minutes, subcutaneous
  PLL: 26.7
Male Sprague-Dawley rats; 45 minutes
  Percent: 100%
  Delta: 19.9
Male Sprague-Dawley rats; Table 11, 15 min., subcutaneous
  Paw Lick Latency: 25.5
Male Sprague-Dawley rats; Table 11, 30 min, subcutaneous
  Paw Lick Latency: 42.4
Male Sprague-Dawley rats; Table 11, 45 min., subcutaneous
  Paw Lick Latency: 36.3
Male Sprague-Dawley rats; Table 11, 60 min., subcutaneous
  Paw Lick Latency: 26.6
Male Sprague-Dawley rats; Table 11, Basal (0 h), before treatment
  Paw Lick Latency: 5.5
Male Sprague-Dawley rats; Table 12, 60, equivalent dose
  Paw Lick Latency: 15.1
Male Sprague-Dawley rats; [10]
  Paw Lick Latency: 31.9
Male Sprague-Dawley rats; [11]
  Paw Lick Latency: 24.5
Male Sprague-Dawley rats; [12]
  Paw Lick Latency: 5.6
[4]
  Comments (curve): Rapid
  Peak Time: 1X
  % AUC: 100%
  % Cmax: 100%

## COc1ccc2c3c1OC1C(OC(=O)C(C)(C)N)=CCC4C(C2)N(C)CCC314 (centres unmarked) [Aib-HC]
[3]
  H2O (1 h, 90 C.): 45
  H2O (24 h, RT): 0

## COc1ccc2c3c1OC1C(OC(=O)C4CCCN4C(=O)C(C)NC(=O)OC(C)(C)C)=CCC4C(C2)N(C)CCC314 (stereo not drawn) [Boc-Ala-Pro-HC, Boc-Ala-Pro-Hydrocodone]
[5]
  Shape of the Curve: ++Clearance
  Peak Time: 1X
  % AUC: 60%
  % Cmax: 97%

## COc1ccc2c3c1OC1C(OC(=O)C(CC(C)C)NC(=O)C(CC(C)C)NC(=O)C(N)CC(C)C)=CCC4C(C2)N(C)CCC314 (centres unmarked) [LLL-HC]
Male Sprague-Dawley rats; Table 12, 60, equivalent dose
  Paw Lick Latency: 3.2
Male Sprague-Dawley rats; [10]
  Paw Lick Latency: 5.7
Male Sprague-Dawley rats; [11]
  Paw Lick Latency: 3.9
Male Sprague-Dawley rats; [12]
  Paw Lick Latency: 4.1

## C[C@H](N)Cc1ccccc1 [Amphetamine, d-amphetamine sulfate, reference compound]
[6]; [14]
  AUC(0-t): 530 ng·h/mL
  Cmax: 193 ng/mL
